Our source for the EC50 values is patent US20200172483A1, “HETEROCYCLIC SMALL MOLECULE MODULATORS OF HUMAN STING” (Curadev Pharma Limited, priority 2017, published 2020).

In one experiment the target is T1, hSTING (HAQ) (Homo sapiens, UniProt Q86WV6, G230A/H232R/R293Q/R71H).
T1 construct: host or cells: HEK293T
As to the kind of experiment: Luciferase reporter assay in HEK293T-hSTING-Luciferase cells (HAQ polymorph). The format is cell-based. As to conditions: EC50 range. The method, boiled down:
(§1)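 Clonal HEK293T lines stably expressing the hSTING variant (H232 or HAQ) plus an ISRE/ISG54-driven secreted luciferase reporter were stimulated with compounds for 20 hr. Supernatant luciferase measured by luminescence (Quanti-Luc).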

A further experiment deals with NF-κB pathway. In words: Reporter gene expression assay for NFκB axis in THP1-Dual cells (secreted SEAP). The format is cell-based, human. The conditions noted are these: 20 hr stimulation, QUANTI-Blue SEAP, EC50 range, read-out: THP-NFKB activity. The essentials:
(§2)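 THP1-Dual cells (THP-1 monocytes with inducible NF-κB-SEAP and IRF-Lucia reporters; 5×10^5 cells) were stimulated with compounds for 20 hr. Secreted SEAP (QUANTI-Blue) and Lucia luciferase (QUANTI-Luc) were then measured in the supernatant. EC50 values are reported as ranges.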
For orientation: Reporter assays use an easily measured gene product as a stand-in for the process of interest.

The next experiment has as its system IRF pathway. In words: Reporter gene expression assay for IRF axis in THP1-Dual cells (secreted Lucia luciferase). It is filed as cell-based, human. The conditions noted are these: 20 hr stimulation, QUANTI-Luc, EC50 range, read-out: THP-IRF activity. The method, boiled down: as §2
The target in another experiment is T2, WT/R232 STING protein (Homo sapiens, UniProt Q86WV6, H232R).
T2 construct: host or cells: HEK293T
As to the kind of experiment: Luciferase reporter assay in HEK293T-hSTING-Luciferase cells (R232). The format is cell-based. The conditions noted are these: 20 hr stimulation, EC50 range. The method, boiled down: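 Clonal HEK293T cells stably expressing human STING R232 plus an ISRE/ISG54-driven secreted luciferase reporter, stimulated with compounds for 20 hr. Luciferase in supernatant read by luminescence; activity given as fold-induction over baseline.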

Another experiment addresses T3, hSTING (H232) (Homo sapiens, UniProt Q86WV6).
T3 construct: host or cells: HEK293T
In words: Luciferase reporter assay in HEK293T-hSTING-Luciferase cells (H232/REF polymorph). The format is cell-based. The conditions noted are these: EC50 range. The method, boiled down: as §1

Structures are written as SMILES. Where two headings read alike, the source gives them in different places. Bounds are passed on as bounds.

T3 sequence (Q86WV6 whole entry): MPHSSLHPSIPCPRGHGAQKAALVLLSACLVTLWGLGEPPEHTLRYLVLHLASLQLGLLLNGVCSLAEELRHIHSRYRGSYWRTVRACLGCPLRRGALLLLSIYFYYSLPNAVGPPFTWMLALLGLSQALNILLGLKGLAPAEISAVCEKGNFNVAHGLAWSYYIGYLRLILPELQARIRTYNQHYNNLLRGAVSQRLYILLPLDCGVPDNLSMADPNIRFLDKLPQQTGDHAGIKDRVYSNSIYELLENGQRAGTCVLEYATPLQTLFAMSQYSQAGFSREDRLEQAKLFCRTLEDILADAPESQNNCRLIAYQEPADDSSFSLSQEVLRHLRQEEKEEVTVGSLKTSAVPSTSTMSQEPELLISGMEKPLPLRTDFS
T2 sequence (Q86WV6 whole entry H232R): as the sequence (Q86WV6 whole entry) above, with H232R counted along it
T1 sequence (Q86WV6 whole entry R71H/G230A/H232R/R293Q): as the sequence (Q86WV6 whole entry) above, with R71H, G230A, H232R, R293Q counted along it

Turning to `CC1(Cl)C(=O)N(Cc2c(F)cccc2Cl)c2cc(C(=O)NCc3c(F)cc(F)cc3F)ccc21` (stereo not drawn) [Example 146, 3-chloro-1(2-chloro-6-fluorobenzyl)-3-methyl-2-oxo-N-(2,4,6-trifluorobenzyl)indoline-6-carboxamide], the EC50 at hSTING (HAQ) is 1 to 10 µM; in the experiment with NF-κB pathway (Homo sapiens, THP1-Dual, 20 h) it was 1 to 10 µM; with IRF pathway (Homo sapiens, THP1-Dual, 20 h) it was more than 10 µM; on WT/R232 STING protein, not above 1 µM; at hSTING (H232), 1 to 10 µM.

As to `CC1(Cl)C(=O)N(Cc2cc(F)cc(F)c2)c2cc(C(=O)NCc3c(F)cc(F)cc3F)ccc21` (stereo not drawn) [Example 147, 3-chloro-1-(3,5-difluorobenzyl)-3-methyl-2-oxo-N-(2,4,6-trifluorobenzyl)indoline-6-carboxamide], the EC50 is more than 10 µM at hSTING (HAQ); more than 10 µM in the experiment on NF-κB pathway; more than 10 µM in the experiment on IRF pathway; not above 1 µM on WT/R232 STING protein; more than 10 µM at hSTING (H232).

Regarding `CC1(Cl)C(=O)N(Cc2cc(F)cc(F)c2)c2cc(C(=O)NCc3c(F)cc(F)cc3F)ccc21` (stereo not drawn) [Example 148], the EC50 at hSTING (HAQ) is 1 to 10 µM; in the experiment with NF-κB pathway, more than 10 µM; with IRF pathway it was more than 10 µM; on WT/R232 STING protein it was 1 to 10 µM; at hSTING (H232), 1 to 10 µM.

For `CC1(N=[N+]=[N-])C(=O)N(Cc2c(F)cccc2Cl)c2cc(C(=O)NCc3c(F)cc(F)cc3F)ccc21` (stereo not drawn) [Example 153, 3-azido-1(2-chloro-6-fluorobenzyl)-3-methyl-2-oxo-N-(2,4,6-trifluorobenzyl)indoline-6-carboxamide], the EC50 at hSTING (HAQ) is 1 to 10 µM; in the experiment on NF-κB pathway (Homo sapiens, THP1-Dual, 20 h), 1 to 10 µM; in the experiment with IRF pathway (Homo sapiens, THP1-Dual, 20 h) it was more than 10 µM; at WT/R232 STING protein, not above 1 µM; on hSTING (H232), 1 to 10 µM.

Regarding `CCC1(Cl)C(=O)N(Cc2c(F)cccc2Cl)c2cc(C(=O)NCc3c(F)cc(F)cc3F)ccc21` (stereo not drawn) [Example 155, 3-chloro-1-(2-chloro-6-fluorobenzyl)-3-ethyl-2-oxo-N-(2,4,6-trifluorobenzyl)indoline-6-carboxamide], the EC50 is more than 10 µM at hSTING (HAQ); more than 10 µM with NF-κB pathway (Homo sapiens, THP1-Dual, 20 h); more than 10 µM in the experiment on IRF pathway (Homo sapiens, THP1-Dual, 20 h); not above 1 µM on WT/R232 STING protein; more than 10 µM on hSTING (H232).

Regarding `CC(C)C1(Cl)C(=O)N(Cc2c(F)cccc2Cl)c2cc(C(=O)NCc3c(F)cc(F)cc3F)ccc21` (stereo not drawn) [Example 157, 3-chloro-1-(2-chloro-6-fluorobenzyl)-3-isopropyl-2-oxo-N-(2,4,6-trifluorobenzyl)indoline-6-carboxamide], the EC50 is 1 to 10 µM at hSTING (HAQ); more than 10 µM in the experiment on NF-κB pathway (Homo sapiens, THP1-Dual, 20 h); more than 10 µM with IRF pathway (Homo sapiens, THP1-Dual, 20 h); not above 1 µM at WT/R232 STING protein; 1 to 10 µM at hSTING (H232).

As to `CCC1(OC)C(=O)N(Cc2c(F)cccc2Cl)c2cc(C(=O)NCc3c(F)cc(F)cc3F)ccc21` (stereo not drawn) [Example 161, 1-(2-chloro-6-fluorobenzyl)-3-ethyl-3-methoxy-2-oxo-N-(2,4,6-trifluorobenzyl)indoline-6-carboxamide], the EC50 on hSTING (HAQ) is 1 to 10 µM; in the experiment with NF-κB pathway (Homo sapiens, THP1-Dual, 20 h), more than 10 µM; in the experiment on IRF pathway (Homo sapiens, THP1-Dual, 20 h), more than 10 µM; on WT/R232 STING protein, 1 to 10 µM; at hSTING (H232), 1 to 10 µM.

Take `CC1(C#N)C(=O)N(Cc2c(F)cccc2Cl)c2cc(C(=O)NCc3c(F)cc(F)cc3F)ccc21` (stereo not drawn) [Example 164, 1-(2-chloro-6-fluorobenzyl)-3-cyano-3-methyl-2-oxo-N-(2,4,6-trifluorobenzyl)indoline-6-carboxamide]: the EC50 was 1 to 10 µM at hSTING (HAQ); more than 10 µM in the experiment on NF-κB pathway; more than 10 µM with IRF pathway (Homo sapiens, THP1-Dual, 20 h); not above 1 µM on WT/R232 STING protein; not above 1 µM at hSTING (H232).

Take `CC1(C#N)C(=O)N(Cc2c(F)cccc2Cl)c2cc(C(=O)NCc3c(F)cc(F)cc3F)ccc21` (stereo not drawn) [Example 165, 1-(2-chloro-6-fluorobenzyl)-3-cyano-3-methyl-2-oxo-N-(2,4,6-trifluorobenzyl)indoline-6-carboxamide]: the EC50 on hSTING (HAQ) was not above 1 µM; in the experiment on NF-κB pathway, 1 to 10 µM; in the experiment on IRF pathway, more than 10 µM; at WT/R232 STING protein it was not above 1 µM; at hSTING (H232), not above 1 µM.

For the molecule `CC1(C#N)C(=O)N(Cc2c(F)cccc2Cl)c2cc(C(=O)NCc3c(F)cc(F)cc3F)ccc21` (stereo not drawn) [Example 166, 1-(2-chloro-6-fluorobenzyl)-3-cyano-3-methyl-2-oxo-N-(2,4,6-trifluorobenzyl)indoline-6-carboxamide], the EC50 is 1 to 10 µM at hSTING (HAQ); more than 10 µM in the experiment on NF-κB pathway; more than 10 µM with IRF pathway; not above 1 µM on WT/R232 STING protein; 1 to 10 µM on hSTING (H232).

Consider `C=CCC1(C)C(=O)N(Cc2cc(C)nn2CC)c2cc(C(=O)NCc3c(F)cc(F)cc3F)ccc21` (stereo not drawn) [Example 175, 3-allyl-1-((1-ethyl-3-methyl-1H-pyrazol-5-yl)methyl)-3-methyl-2-oxo-N-(2,4,6-trifluorobenzyl)indoline-6-carboxamide], for which the EC50 at hSTING (HAQ) lay in the range of 1 to 10 µM; in the experiment with NF-κB pathway (Homo sapiens, THP1-Dual, 20 h) it was 1 to 10 µM; in the experiment with IRF pathway (Homo sapiens, THP1-Dual, 20 h), 1 to 10 µM; on WT/R232 STING protein, 1 to 10 µM; on hSTING (H232), 1 to 10 µM.

Consider `CC1(C)C(=O)N(Cc2cc(F)cc(F)c2)c2nc(C(=O)NCc3cc4ccccc4o3)ccc21` [Example 182, N-(benzofuran-2-ylmethyl)-1-(3,5-difluorobenzyl)-3,3-dimethyl-2-oxo-2,3-dihydro-1H-pyrrolo[2,3-b]pyridine-6-carboxamide], for which the EC50 is 1 to 10 µM at hSTING (HAQ); more than 10 µM with NF-κB pathway (Homo sapiens, THP1-Dual, 20 h); more than 10 µM in the experiment on IRF pathway (Homo sapiens, THP1-Dual, 20 h); 1 to 10 µM at WT/R232 STING protein; 1 to 10 µM at hSTING (H232).

Take `Cc1ccc(CNC(=O)c2ccc3c(n2)N(Cc2cc(F)cc(F)c2)C(=O)C3(C)C)o1` [Example 188, 1-(3,5-difluorobenzyl)-3,3-dimethyl-N-((5-methylfuran-2-yl)methyl)-2-oxo-2,3-dihydro-1H-pyrrolo[2,3-b]pyridine-6-carboxamide]: the EC50 is 1 to 10 µM at hSTING (HAQ); more than 10 µM with NF-κB pathway (Homo sapiens, THP1-Dual, 20 h); more than 10 µM with IRF pathway (Homo sapiens, THP1-Dual, 20 h); 1 to 10 µM at WT/R232 STING protein; 1 to 10 µM on hSTING (H232).

In the case of `CC1(C)C(=O)N(Cc2cc(F)cc(F)c2)c2nc(C(=O)NCc3ccc(F)cc3)ccc21` [Example 189, 1-(3,5-difluorobenzyl)-N-(4-fluorobenzyl)-3,3-dimethyl-2-oxo-2,3-dihydro-1H-pyrrolo[2,3-b]pyridine-6-carboxamide], the EC50 was 1 to 10 µM at hSTING (HAQ); more than 10 µM in the experiment with NF-κB pathway (Homo sapiens, THP1-Dual, 20 h); more than 10 µM with IRF pathway (Homo sapiens, THP1-Dual, 20 h); not above 1 µM on WT/R232 STING protein; 1 to 10 µM at hSTING (H232).

In the case of `CC1(C)C(=O)N(Cc2cc(F)cc(F)c2)c2nc(C(=O)NCc3ccccc3)ccc21` [Example 191, N-benzyl-1-(3,5-difluorobenzyl)-3,3-dimethyl-2-oxo-2,3-dihydro-1H-pyrrolo[2,3-b]pyridine-6-carboxamide], the EC50 on hSTING (HAQ) was 1 to 10 µM; in the experiment with NF-κB pathway (Homo sapiens, THP1-Dual, 20 h) it was more than 10 µM; in the experiment with IRF pathway (Homo sapiens, THP1-Dual, 20 h), more than 10 µM; at WT/R232 STING protein, 1 to 10 µM; at hSTING (H232) it was 1 to 10 µM.
